These results are taken from paper PMC5470993, “Discovery and characterization of small molecule Rac1 inhibitors” (Oncotarget, 2017).

Like-named read-outs stand apart in the source and are kept apart here.

For assay [1], the target named is T1, Rac1 (His-Rac1) (Homo sapiens, UniProt P63000).
T1 construct: wild type by context
Description: GST-PAK1 pull-down of Rac1-GTP-γS, immunoblot. It counts as binding. Background: A western blot detects proteins with antibodies after separation by electrophoresis.

Assay [2] has as its target T2, Rac1 (endogenous, CD18/HPAF cells) (Homo sapiens, UniProt P63000).
T2 construct: endogenous Rac1 of CD18/HPAF human pancreatic cancer cells; Rac1-GTP captured with GST-PAK1 and blotted with Rac1 antibody 23A8
Description: Rac1-GTP pull-down with GST-PAK1 from EGF-stimulated cells, immunoblot. It counts as cell-based. The conditions noted are these: intact cells, 2 h compound, then EGF 100 ng/ml 5 min.

The target of assay [3] is T1, Rac1 (His-Rac1). Description: fluorescence polarization competition with mant-GDP. Format: binding. A general note: In fluorescence polarisation assays a small probe gives low polarisation when free and higher when bound to something large.
The target of assay [4] is T1, Rac1 (His-Rac1). Description: GST-PAK1 pull-down of Rac1-GTP-γS, immunoblot. The conditions noted are these: read-out: apparent binding affinity.

A word on the IC50: it is the midpoint of a concentration-inhibition curve. In general, EC50 refers to the midpoint of the concentration-response curve. The low end stands for greater potency, the high end for weaker potency. The Ki is a measure of affinity in units of concentration, obtained from inhibition or displacement. The low end stands for tighter binding, the high end for weaker binding.

Regarding `CC(=O)c1cccc(NC(=O)c2ccc(-c3cccc([N+](=O)[O-])c3)o2)c1` [#1, compound #1], the half-maximal inhibitory concentration (IC50) in assay [1] (read-out: IC50) came to 0.095 ± 0.021 µM. Moreover, it took 8.3 ± 1.7 µM to reach a half-maximal effect in assay [2] (EC50). In addition, affinity in assay [3] was put at a Ki of 6.8 ± 1.4 µM.

`Cc1cc(C)cc(NC(=O)Cn2cc(C(=O)c3cccs3)c3ccccc32)c1` [#6, compound #6] gave an IC50 in assay [1] of 0.088 ± 0.048 µM. In addition, the EC50 in assay [2] worked out at 22.4 ± 3.2 µM.

For `Nc1nc2c(ncn2[C@@H]2O[C@H](COP(=O)(O)OP(=O)(O)OP(O)(O)=S)[C@@H](O)[C@H]2O)c(=O)[nH]1` [GTP-γS], the Kd in assay [4] stood at 0.243 ± 0.093 µM.
